≈ marks a conversion by molar mass, not a printed value.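 Step 1: Grow cells in 96-well plates. Step 2: Expose to compound for 48 hours at 5 concentrations. Step 3: Interpolate endpoints linearly; if unreached, use highest concentration. GI50: concentration for 50% inhibition of growth. The concentration for full growth arrest is given as TGI.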
Experiments:
Assay in all cases: NCI tumour cell line growth inhibition, 48 h
COLO 205 colon = tested on: COLO 205 colon
EKVX NSCLC = tested on: EKVX NSCLC
M14 melanoma = tested on: M14 melanoma
SK-MEL-5 melanoma = tested on: SK-MEL-5 melanoma
CCRF-CEM leukemia = tested on: CCRF-CEM leukemia
OVCAR-8 ovarian = tested on: OVCAR-8 ovarian
OVCAR-5 ovarian = tested on: OVCAR-5 ovarian
NCI/ADR-RES ovarian = tested on: NCI/ADR-RES ovarian
MCF7 breast = tested on: MCF7 breast
PC-3 prostate = tested on: PC-3 prostate

SMILES	TGI (COLO 205 colon)	TGI (EKVX NSCLC)	TGI (M14 melanoma)	TGI (SK-MEL-5 melanoma)	TGI (CCRF-CEM leukemia)	TGI (OVCAR-8 ovarian)	TGI (OVCAR-5 ovarian)	GI50 (COLO 205 colon)	GI50 (EKVX NSCLC)	GI50 (SK-MEL-5 melanoma)	GI50 (OVCAR-8 ovarian)	GI50 (NCI/ADR-RES ovarian)	TGI (NCI/ADR-RES ovarian)	TGI (MCF7 breast)	TGI (PC-3 prostate)	GI50 (M14 melanoma)	GI50 (PC-3 prostate)	GI50 (OVCAR-5 ovarian)	GI50 (MCF7 breast)	GI50 (CCRF-CEM leukemia)
OCC(O)CNc1ccnc2cc(Cl)ccc12 (configuration not stated)	> 100 µM	> 100 µM	> 100 µM	> 100 µM	> 100 µM	> 100 µM	> 100 µM													
Clc1cc(Cl)cc(Nc2ccc3cc(OCCCN4CCOCC4)ccc3n2)c1	3.67 µM	> 100 µM		3.13 µM		> 100 µM		1.78 µM	3.39 µM	1.71 µM	4.36 µM	2.96 µM	> 100 µM							
CCOC(=O)/C(=C/c1cccc(C#N)c1)N(CC)CC	> 100 µM	> 100 µM	> 100 µM	> 100 µM	> 100 µM	> 100 µM	> 100 µM													
CC1=C(C(=O)Nc2ccccc2)C(c2ccc(C3C(C(=O)Nc4ccccc4)=C(C)NC(C)=C3C(=O)Nc3ccccc3)cc2)C(C(=O)Nc2ccccc2)=C(C)N1	10.6 µM	10.6 µM	6.46 µM	6.22 µM	12 µM	11.2 µM	17.6 µM							14.7 µM	12.5 µM					
COc1cc(C2C(C(=O)Nc3cc(F)c(F)cc3F)=C(C)NC(C)=C2C(=O)Nc2cc(F)c(F)cc2F)ccc1O	> 100 µM	73.9 µM	> 100 µM	53.9 µM	45.6 µM	96.7 µM	59.9 µM													
CC(=O)OCCOCNC(=S)N/N=C/c1ccc(Br)s1	> 100 µM	> 100 µM	> 100 µM	> 100 µM	> 100 µM	> 100 µM	> 100 µM													
O=C1CSC(c2ccc(-c3nc4ccccc4s3)cc2)=N1	> 100 µM	13.5 µM	> 100 µM	41.2 µM		> 100 µM	> 100 µM	> 100 µM	1.81 µM	19.2 µM	11.1 µM	50.5 µM	> 100 µM		> 100 µM	38.6 µM	> 100 µM	26.3 µM		
Cc1cccc(N=C2NC(=O)C(CC(=O)Nc3cccc(C)c3C)S2)c1 (configuration not stated)	> 100 µM	> 100 µM	> 100 µM	> 100 µM	> 100 µM	> 100 µM	> 100 µM													
COC(=O)c1cccc2cccc(C(=O)Nc3ccc(Cl)cc3)c12	> 62.3 µM	> 100 µM	> 100 µM	> 100 µM	> 67.1 µM	> 100 µM	> 100 µM													
C=CCN1CC2CON(C(=O)C(OC)(c3ccccc3)C(F)(F)F)C2C1C(C)C (configuration not stated)		99.1 µg/mL			62 µg/mL			26 µg/mL	33.6 µg/mL		57.7 µg/mL	34.2 µg/mL		78.7 µg/mL		30.3 µg/mL		32 µg/mL	26.2 µg/mL	15.2 µg/mL (≈ 36.8 µM)
Oc1ccc(Br)cc1C=Nc1ccc(N=Cc2cc(Br)ccc2O)cc1		> 100 µM	> 100 µM	> 100 µM	> 100 µM	> 100 µM	> 100 µM													
Clc1ccc(N=CNc2ccc(-c3nc4ccccc4o3)cc2)cc1	> 100 µM	2.84 µM	> 100 µM	30.1 µM		40.9 µM	99.6 µM	22.7 µM	0.241 µM	15.4 µM	21.1 µM	7.03 µM	48.1 µM		> 100 µM	56.4 µM	41.7 µM	33.3 µM		
O=C1C(=O)N(c2cc(Cl)ccc2Cl)C(=O)C(=O)C1c1nc2ccccc2o1	> 100 µM	> 100 µM	> 100 µM	> 100 µM	> 100 µM	> 100 µM	> 100 µM													
N#CC(C(=O)CCC(=O)Nc1cccc(C(F)(F)F)c1)c1ccc(Cl)cc1 (configuration not stated)	> 100 µM	> 100 µM	> 100 µM	> 100 µM	> 100 µM	> 100 µM	> 100 µM													
COC(=O)/C(=C\c1ccc(N(CCC#N)CCC#N)cc1)NC(=O)c1cc([N+](=O)[O-])ccc1Cl	> 100 µM	> 100 µM	> 100 µM	> 100 µM	> 100 µM	> 100 µM	> 100 µM													
C=C1CC[C@@H](C(C)C)C[C@@H]2[C@H]([C@H](O)C[C@]2(C)O)[C@@]2(C)CC[C@@H]1O2	34.9 µM	55.9 µM	33.4 µM	28.3 µM		46.4 µM	26 µM	20 µM	28 µM	14.8 µM	21.4 µM	16.7 µM	33.2 µM	29.7 µM		19.3 µM		13.2 µM	16.2 µM	
CC1=C(c2cc(C(=O)Nc3ccc(Cl)cc3)nc(=S)[nH]2)Sc2ccccc2N1	> 100 µM	> 100 µM	> 100 µM	> 100 µM	> 100 µM	> 100 µM	> 100 µM													
O=C(OCC(OC(=O)c1ccccc1)C(OC(=O)c1ccccc1)C(OC(=O)c1ccccc1)c1cnn(-c2ccccc2)n1)c1ccccc1 (configuration not stated)	> 100 µM	> 100 µM	> 100 µM	> 100 µM	> 100 µM	> 100 µM	> 100 µM						> 100 µM	> 100 µM						
OCCNCCOc1ccc(/C(=C(/Cl)c2ccccc2)c2ccccc2)cc1	22.8 µM	28.6 µM	3.59 µM	19.2 µM	9.87 µM	28 µM	28.3 µM													
CCN(CC)c1cc2oc3cc(N)cc(=N)c-3nc2cc1C	3.95 µM	54.6 µM	4.92 µM	2.79 µM		> 100 µM	7.4 µM	1.9 µM	4.02 µM	1.42 µM	2.77 µM	2.29 µM	> 100 µM	4.49 µM	> 100 µM	2.25 µM	1.73 µM	2.82 µM	1.86 µM	
C=CCn1c2c(sc1=S)C(S)N=CN2 (configuration not stated)	> 100 µM	> 100 µM	> 100 µM	> 100 µM	> 100 µM	> 100 µM	> 100 µM													
CCOC(=O)Cn1c(=O)n(C)c(=O)c2c1ncn2Cc1ccccc1	> 100 µM	> 100 µM	> 100 µM	> 100 µM	> 100 µM	> 100 µM	> 100 µM													

Source: PubChem BioAssay (NCI)
